The subject of one test is RSV (Long strain). In words: RSV induced cell death reduction in HEp-2 cells. The class given is cell-based, respiratory syncytial virus. The settings on record: for RSV activity, Maximum inhibition (in words): serial dilution 100 to 0.14 μM, 72 h.
The test system of test [1] is influenza virus (A/WSN/33). Put plainly: plaque reduction assay, influenza virus in MDCK cells. The class given is cell-based.
Test [2] addresses interaction between PB1 and PA (Influenza A virus, UniProt P03433). Put plainly: biochemical. The class given is binding. As to conditions: for IC50: calculated from inhibition at maximum obtainable concentration where solubility too low, read-out: IC50 [μM] (ELISA); for Active in ELISA: prescreening.
The next test concerns HA-tagged PA from FluB. In words: competitive ELISA, PB1 peptide / PA of FluB. The class given is binding, influenza B virus. The settings on record: competitor peptides 0.048 to 3000 nM; […]; standard deviation in parenthesis; * highest concentration used.

Like-named read-outs stand apart in the source and are kept apart here.

For the molecule `O=[N+]([O-])c1ccc(Sc2ccc(F)cc2)c2nonc12` [PKE079, 4-[(4-fluorophenyl)thio]-7-nitro-2,1,3-benzoxadiazole], the “inhibition of RSV replication (summary in words)” value in the test with RSV (Long strain) is “effective”. For the same molecule, in the test with RSV (Long strain) (human respiratory syncytial virus, HEp-2), inhibition was half-maximal at 7000 nM (IC50). Further, the inhibition at 11 µM with RSV (Long strain) (human respiratory syncytial virus, HEp-2, at 11 μM, read-out: RSV activity, Maximum inhibition) amounted to 53%. For the same molecule, the “inhibition of the replication of influenza virus, particularly influenza A (summary in words)” value in test [1] is “effectively inhibited”. Moreover, in test [2], the IC50 was 125 µM and the “Active in ELISA” value is recorded as “Yes”.
Regarding `O=[N+]([O-])c1ccc(SCc2ccccc2)c2nonc12` [PKE107, 4-nitro-7-(phenylmethylsulfanyl)-2,1,3-benzoxadiazole], the “RSV activity, Maximum inhibition (in words)” value in the test with RSV (Long strain) was “inactive”. In test [1], the “inhibition of the replication of influenza virus, particularly influenza A (summary in words)” value was “effectively inhibited”. In test [2], the half-inhibitory concentration (IC50) was 125 µM and the “Active in ELISA” value is “Yes”.
`O=[N+]([O-])c1ccc(S(=O)(=O)Cc2ccccc2)c2nonc12` [PKE108, 4-nitro-7-(phenylmethylsulfonyl)-2,1,3-benzoxadiazole]: the “RSV activity, Maximum inhibition (in words)” value in the test on RSV (Long strain) was “inactive”. Further, the “inhibition of the replication of influenza virus, particularly influenza A (summary in words)” value in test [1] is “effectively inhibited”. For the same molecule, in test [2], the IC50 was 500 µM and the “Active in ELISA” value is given as “Yes”.
For `O=[N+]([O-])c1ccc(Sc2ncnc3c2ncn3C2OC(CO)C(O)C2O)c2nonc12` (stereo not drawn) [PKE137, 2-(hydroxymethyl)-5-[6-[(4-nitro-2,1,3-benzoxadiazol-7-yl)sulfanyl]purin-9-yl]oxolane-3,4-diol], in the test on RSV (Long strain), the “RSV activity, Maximum inhibition (in words)” value is “inactive”. For the same molecule, the “inhibition of the replication of influenza virus, particularly influenza A (summary in words)” value in test [1] is “effectively inhibited”. Besides, in test [2], the IC50 is 200 µM and the “Active in ELISA” value was “Yes”.
For `Nc1nc(Sc2ccc([N+](=O)[O-])c3nonc23)c2ncn(C3OC(CO)C(O)C3O)c2n1` (stereo not drawn) [PKE138, 2-[2-amino-6-[(4-nitro-2,1,3-benzoxadiazol-7-yl)sulfanyl]purin-9-yl]-5-(hydroxymethyl)oxolane-3,4-diol], in that order: “inactive”, “effectively inhibited”, 250 µM and “Yes”.
Take MDVNPFLLFLKVPAQ [PB11-15 AT5F]: the 50% inhibitory concentration (IC50) with HA-tagged PA from FluB came out at 750 nM; with HA-tagged PA of FluA (read-out: IC50 (nM) PA (FluA)), 2.84 nM.
On to MDVNPTLLFLK [Compound 1-11], for which the half-maximal inhibitory concentration (IC50) in the test with HA-tagged PA of FluA (read-out: IC50 (nM) of FluA-derived PB1 peptides (truncations)) amounted to 900 nM.
With MDVNPTLLFLKVPAQ [PB11-15 A], the 50% inhibitory concentration (IC50) in the test with HA-tagged PA from FluB was more than 3000 nM.
Turning to MDVNPWLLFLKVPAQ [PB11-15 AT6W], the figures for the IC50 with HA-tagged PA from FluB and with HA-tagged PA of FluA (read-out: IC50 (nM) PA (FluA)) were 628 nM and 3.4 nM, respectively.
For MDVNPYLLFLKVPAQ [PB11-15 AT5Y] the same measures were 107 nM and 21.6 nM.

These data come from patent publication US20120122896A1, “2,1,3-BENZOXADIAZOL DERIVATIVES FOR THE INHIBITION OF INFLUENZA A AND B VIRUS AND RESPIRATORY SYNCYTIAL VIRUS REPLICATION” (PIKE PHARMA GMBH, priority 2009, published 2012).
